# Paper PMC12903857
# Legend:
# Type in all cases: binding
# 14-3-3σ/C-RAF259 [1] = target: T1, 14-3-3σ/C-RAF259 (Homo sapiens, UniProt P31947); test: Intact mass spectrometry assay with C-RAF259 phospho-peptide; set-up: full-length for mass spectrometry and fluorescence anisotropy assays; made in house; host or cells: E. coli Rosetta 2(DE3)pLysS (14-3-3σ); peptides from Elim Biopharmaceuticals; conditions: 1 μM compound, 100 nM 14-3-3σ, 18 µM peptide
# Method: (§1) In analogy to our previous work, two orthogonal assays were used for screening (Figure S2). […] Dose responses of compounds were performed in the absence and presence of the C-RAF259 phospho-peptide to distinguish between neutral binders and cooperative molecular glues. The experiment was performed as a time course, with measurements every 8 h, after an 1 h incubation. Additionally, the compounds were tested in a fluorescence anisotropy (FA) assay in the presence of the 5-carboxyfluorescein-(FAM)-labeled C-RAF259 peptide. […] The full dose–response data for all compounds are available in the SI (Tables S2–S5, Figures S5–S8, Figures S15–S18, Figures S25–S32, Figures S37–S39). The dose–response data from both assays were also visually compared in the form of bar graphs. […] For FA experiments, the EC50 values from the overnight measurement were calculated and plotted as bar graphs showing the […] log EC50 value (pEC50). Compounds acting as MGs were expected to show increases in both types of bar graphs.
# (§2) transferred in the assay plates.
# (§3) The reacton mixtures were incubated
# (§4) dispensed in the assay plates.
# (§5) incubaton at room temperature .
# 14-3-3σ/C-RAF259 [2] = target: T1, 14-3-3σ/C-RAF259; test: Fluorescence anisotropy (FA) compound titration; conditions: 10 nM C-RAF259-FAM 10-mer, 5 μΜ 14-3-3σ, overnight; for EC50: read-out: Compound titrations EC50 value C-RAF259
# Method: as §1, §2, §3, §4, §5
# 14-3-3σ = target: T2, 14-3-3σ (Homo sapiens, UniProt P31947); test: Intact mass spectrometry assay, apo (no peptide); set-up: full-length for mass spectrometry and fluorescence anisotropy assays; made in house; host or cells: E. coli Rosetta 2(DE3)pLysS, pPROEX HTb vector; conditions: 1 μM compound, 100 nM 14-3-3σ
# T2 sequence (P31947 1-248): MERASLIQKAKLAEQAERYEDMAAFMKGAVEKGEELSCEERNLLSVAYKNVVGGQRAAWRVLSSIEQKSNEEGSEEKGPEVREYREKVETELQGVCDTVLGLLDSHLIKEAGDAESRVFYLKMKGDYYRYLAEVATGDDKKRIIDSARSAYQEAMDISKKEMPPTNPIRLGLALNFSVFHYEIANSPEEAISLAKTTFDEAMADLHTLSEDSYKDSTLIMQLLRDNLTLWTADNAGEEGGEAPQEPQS
# Method: as §1, §2, §3, §4, §5
SMILES,"% bound, C-RAF259 (11mer), 1h (14-3-3σ/C-RAF259 [1]) [%]","% bound, C-RAF259 (11mer), 8h (14-3-3σ/C-RAF259 [1]) [%]","% bound, C-RAF259 (11mer), 16h (14-3-3σ/C-RAF259 [1]) [%]","% bound, C-RAF259 (11mer), 24h (14-3-3σ/C-RAF259 [1]) [%]",EC50 (14-3-3σ/C-RAF259 [2]) [µM],"% bound, APO, 1h (14-3-3σ) [%]","% bound, APO, 8h (14-3-3σ) [%]","% bound, APO, 16h (14-3-3σ) [%]","% bound, APO, 24h (14-3-3σ) [%]",Compound titrations EC50 value C-RAF259 (14-3-3σ/C-RAF259 [2])
O=C(CCl)NCCCC1CCN(S(=O)(=O)c2ccc(Cl)cc2)CC1 [Compound 13],0.9,2.9,5.6,14.1,> 1000,0,1.5,2.5,4.3,–
O=C(CCl)N1CC[C@]2(CCN(S(=O)(=O)c3ccc(Br)c(F)c3)C2)C1 [Compound 89],43,65.8,82,–,> 250,5.6,14.5,36.2,53.9,–
O=C(CCl)N1CC2(CCN(S(=O)(=O)c3ccc(Br)c(F)c3)CC2(F)F)C1 [Compound 52],25,45.1,64.3,80.2,94 ± 9,2.9,11.3,18.5,28.6,–
O=C(C(Cl)Cl)N1CC2(CCN(S(=O)(=O)c3ccc(Br)c(F)c3)CC2(F)F)C1 [Compound 74],0,0,0,4.7,> 1000,0,0,0,0,completely inactive
O=C(CCl)NCC1CCN(S(=O)(=O)c2ccc(C(F)(F)F)c(F)c2)CC1 [Compound 32],–,–,–,–,4 ± 1,–,–,–,–,–
O=C(CCl)NCC1CCN(S(=O)(=O)c2ccc(F)cc2F)CC1 [Compound 27],6.9,14.1,27.5,50.3,> 150,1,–,3.8,5.2,–
O=C(CCl)N1CC2(CCN(S(=O)(=O)c3ccc(Br)c(F)c3)CC2)C1 [Compound 49],11.1,32.4,53.8,86.6,47 ± 4,1.9,5.2,13.8,15.9,–
O=C(CCl)NCC1CCN(S(=O)(=O)c2ccc(Br)c(F)c2)CC1 [Compound 37],–,–,–,–,5 ± 1,–,–,–,–,–
O=C(CCl)NCC1CCN(S(=O)(=O)Cc2ccc(F)cc2)CC1 [Compound 7],1.5,1.5,2.5,4.7,> 1000,1,1.9,1.9,2.9,–
N#Cc1ccc(S(=O)(=O)N2CCC(CNC(=O)CCl)CC2)cc1 [Compound 20],4.7,12.1,23.9,42.3,> 150,0,0.5,1.5,2.9,–
O=C(CCl)N1CC2(CCCN(S(=O)(=O)c3ccc(Br)c(F)c3)C2)C1 [Compound 83],–,–,–,–,5 ± 2,–,–,–,–,–

# The next lines start with the values.
"% bound, C-RAF259 (11mer), 1h (14-3-3σ/C-RAF259 [1]) [%]","% bound, C-RAF259 (11mer), 8h (14-3-3σ/C-RAF259 [1]) [%]","% bound, C-RAF259 (11mer), 16h (14-3-3σ/C-RAF259 [1]) [%]","% bound, C-RAF259 (11mer), 24h (14-3-3σ/C-RAF259 [1]) [%]",EC50 (14-3-3σ/C-RAF259 [2]) [µM],"% bound, APO, 1h (14-3-3σ) [%]","% bound, APO, 8h (14-3-3σ) [%]","% bound, APO, 16h (14-3-3σ) [%]","% bound, APO, 24h (14-3-3σ) [%]",Compound titrations EC50 value C-RAF259 (14-3-3σ/C-RAF259 [2]),SMILES
3.3,8.2,18,32.4,> 150,0,1,1.9,2.9,–,O=C(CCl)NCC1CCN(S(=O)(=O)c2cccc(F)c2)CC1 [Compound 16]
3.3,8.2,13.7,23.3,87 ± 9,0.5,1.9,2.4,2.4,–,O=C(CCl)NCC1CCN(S(=O)(=O)c2ccccc2F)CC1 [Compound 15]
0,0,0,3.8,> 1000,0,0,0,0.5,–,O=C(CCl)NCC1CCN(S(=O)(=O)C2CC3(C2)CC(F)(F)C3)CC1 [Compound 35]
37.1,68,80.9,83.3,78 ± 7,5.2,13.3,21.8,36.8,–,O=C(CCl)N1CC2CCC1CC2NS(=O)(=O)c1ccc(Br)c(F)c1 (stereo not drawn) [Compound 61]
–,–,–,–,9 ± 2,–,–,–,–,–,O=C(CCl)N1CC2(C1)CN(S(=O)(=O)c1ccc(C(F)(F)F)c(F)c1)CCO2 [Compound 80]
10.6,15,27.1,44.4,57 ± 9,0.5,1.9,7.4,13.8,–,COc1ccc(S(=O)(=O)N2CCC(CNC(=O)CCl)CC2)cc1 [Compound 25]
1.9,2.9,12.1,31,> 1000,0,1.5,1.5,3.8,–,O=C(CCl)NCc1ccc(NS(=O)(=O)c2ccc(Br)c(F)c2)cc1 [Compound 73]
15,30.4,55.6,81.5,14 ± 1,2.9,9.1,15.9,23,–,O=C(CCl)N1CC2(CC(NS(=O)(=O)c3ccc(Br)c(F)c3)CO2)C1 (stereo not drawn) [Compound 67]
0.5,0.9,0.9,3.8,> 1000,0,0.5,0.9,0.9,–,O=C(CCl)NCC1CCN(S(=O)(=O)C2CCC3(CC2)CC3(F)F)CC1 (stereo not drawn) [Compound 34]
4.3,15.2,27.5,40,88 ± 2,1.9,4.7,6.5,9.1,–,O=C(CCl)NCC1CCN(S(=O)(=O)c2ccc(F)c(F)c2)CC1 [Compound 28]
